Results on 31 molecules are retold here after patent US5889148A, “Antibiotic peptides” (priority 1995, dated 1999).

In one data set the test system is red blood cells. Format: cell-based, human. Here is the method:
To 190 μl of the red blood cell-containing solution thus prepared, was added 10 μl of peptide solution prior to the incubation at 37° C. for 30 min. After incubation, centrifugation followed to obtain supernatant. Then, a level (%) of cell lysis caused by peptides was determined by the examination of absorbance at 576 nm (see: Table 12). At this moment, TEDFK, TEDFK-1A, M5, M6, M19, M22 and M32 were chosen as peptide fragments of Tenecin, and an antibiotic peptide KLK (see: Natori, S. et al., J. Biochem., 117(6):1312-1316(1995)) and a commercially available antibiotic, Amphotericin B(Sigma, USA) known to lyse a red blood cell were employed as controls, respectively.

Data set [1] concerns Candida albicans (ATCC 36232). In words: MIC test, antifungal activity. Type of data set: cell-based. Here is the method: (§1) Antibacterial and antifungal activities of the peptides were determined by employing MIC test as follows:
(§2) To determine antifungal activity, a test organism Candida albicans (ATCC 36232) was cultured on Sabouraud dextrose agar plate for 24 to 48 hrs, and colonies thus grown were suspended on Sabouraud dextrose medium(Gibco, USA) to have O.D.530 =0.5(3×10^6 cells) and further diluted with 100-fold to have O.D.530 =0.005(3×10^4 cells). 100 μl of Candida albicans culture thus prepared was pipetted on 96-well microplates which had already contained 100 μl of a serially diluted peptide solution.

The test system of data set [2] is Staphylococcus aureus (ATCC 6538). The experiment in a line: MIC test, antibacterial activity. Type of data set: cell-based. As for the experimental part:
as §1, §2
Antibacterial activity of peptide was determined analogously as above, with an exception that Staphylococcus aureus (ATCC 6538) selected as a test organism was cultured on M-3 medium(Gibco, USA) at 37° C. and cell number was adjusted to 2×10^8 cells before 100-fold dilution.

[3] abbreviates: Table 8, TEDFK derivatives of group 1.
[4] abbreviates: Table 11, enantiomer, retro-inverso, D-amino acid derivatives of M22.
Setting [5] is: Table 3, addition of an amino acid to N-terminal of TED.
Setting [6] is: Table 4, addition of an amino acid to N-terminal of TEDF.
Setting [7] is: Table 1, peptide fragments of Tenecin.

Non-standard residues stand in square brackets, D forms with d. No end group written: not given here. Aib = CC(C)(N)C(=O)O Where only a bound is given, the exact number is not on record here.

As to `C[C@@H]1[C@H](O)[C@@H](C)/C=C/C=C/C=C/C=C/C=C/C=C/C=C/[C@H](O[C@@H]2O[C@H](C)[C@@H](O)[C@H](N)[C@@H]2O)C[C@@H]2O[C@](O)(C[C@@H](O)C[C@@H](O)[C@H](O)CC[C@@H](O)C[C@@H](O)CC(=O)O[C@H]1C)C[C@H](O)[C@H]2C(=O)O` [Amphotericin B], the “cell lysis (in words)” value in the data set with red blood cells is given as “cause cell lysis”.
“KFYCNWKRVCVCR--NH2 (KFYCNWKRVCVCR-NH2; cysteine pairing not given here) [M30]”: the “MIC C. albicans” value in data set [1] (setting [3]) was 12.5 µg/mL. In addition, the “MIC S. aureus” value in data set [2] (setting [3]) came out at 12.7 µg/mL.
“KFY[Aib]KGKRVCVCR-NH2 (cysteine pairing not given here) [M17]”: in data set [1] (setting [3]), the “MIC C. albicans” value came out at 6.25 µg/mL. The “MIC S. aureus” value in data set [2] (setting [3]) was 6.35 µg/mL.
As for “KFY[Aib]KKVCVCK-NH2 (cysteine pairing not given here) [M8]”, the “MIC C. albicans” value in data set [1] (setting [3]) worked out at 3.12 µg/mL. Moreover, the “MIC S. aureus” value in data set [2] (setting [3]) was determined as 3.16 µg/mL.
On to “KKYCNGKRVCVCR--NH2 (KKYCNGKRVCVCR-NH2; cysteine pairing not given here) [M1]”, for which the “MIC C. albicans” value in data set [1] (setting [3]) is 3.12 µg/mL. The “MIC S. aureus” value in data set [2] (setting [3]) is 3.16 µg/mL.
With “KKYCNKKCVCK--NH2 [M5] (KKYCNKKCVCK-NH2; cysteine pairing not given here)”, in data set [1] (setting [3]), the “MIC C. albicans” value stood at 3.12 µg/mL. For the same molecule, the “MIC S. aureus” value in data set [2] (setting [3]) turned out to be 3.16 µg/mL.
The corresponding values for “KKYCNKKCVCK--NH2 [M6] (KKYCNKKCVCK-NH2; cysteine pairing not given here)” are 3.12 µg/mL and 3.16 µg/mL.
The corresponding values for KKYCNXRVCVCR--NH2 [M4] are 3.12 µg/mL and 3.16 µg/mL.
Take KKYIKKVFVFk--NH2 [M22-7]: the “MIC C. albicans” value in data set [1] (setting [4]) turned out to be 3.12 µg/mL. The “MIC S. aureus” value in data set [2] (setting [4]) amounted to 3.11 µg/mL.
As to KKYIkkVFVFK--NH2 [M22-27], the “MIC C. albicans” value in data set [1] (setting [4]) is 3.11 µg/mL. Also, in data set [2] (setting [4]), the “MIC S. aureus” value was found to be 3.17 µg/mL.
Turning to KKyIKKVFVFK--NH2 [M22-26], the “MIC C. albicans” value in data set [1] (setting [4]) worked out at 3.15 µg/mL. In addition, the “MIC S. aureus” value in data set [2] (setting [4]) turned out to be 3.16 µg/mL.
Take “KPYCNGKRVCVCR--NH2 (KPYCNGKRVCVCR-NH2; cysteine pairing not given here) [M2]”: the “MIC C. albicans” value in data set [1] (setting [3]) was found to be 6.25 µg/mL. Besides, the “MIC S. aureus” value in data set [2] (setting [3]) is 6.35 µg/mL.
The corresponding values for “KWYCNGKRVCVCR--NH2 (KWYCNGKRVCVCR-NH2; cysteine pairing not given here) [M26]” are 6.25 µg/mL and 6.35 µg/mL.
As to “KYCNGKRVCVCR--NH2 (KYCNGKRVCVCR-NH2; cysteine pairing not given here) [TEDK]”, the “MIC C. albicans” value in data set [1] (setting [5]) came out at 5 µg/mL. The “MIC S. aureus” value in data set [2] (setting [5]) turned out to be 5 µg/mL.
Regarding “KYCNGKRVCVCRK--NH2 (KYCNGKRVCVCRK-NH2; cysteine pairing not given here) [M16]”, the “MIC C. albicans” value in data set [1] (setting [3]) is 6.25 µg/mL. For the same molecule, the “MIC S. aureus” value in data set [2] (setting [3]) amounted to 6.35 µg/mL.
In the case of “LFYCNGKRVCVCR--NH2 (LFYCNGKRVCVCR-NH2; cysteine pairing not given here) [TEDFL]”, the “MIC C. albicans” value in data set [1] (setting [6]) was determined as 100 µg/mL. The “MIC S. aureus” value in data set [2] (setting [6]) was 30 µg/mL.
For the molecule “LSVEAKGVKLGGGYCNGKRVCVCR--NH2 (LSVEAKGVKLGGGYCNGKRVCVCR-NH2; cysteine pairing not given here) [TEQ]”, the “MIC C. albicans” value in data set [1] (setting [7]) was more than 100 µg/mL. The “MIC S. aureus” value in data set [2] (setting [7]) is more than 500 µg/mL.
On to “LYCNGKRVCVCR--NH2 (LYCNGKRVCVCR-NH2; cysteine pairing not given here) [TEDL]”, for which the “MIC C. albicans” value in data set [1] (setting [5]) was found to be 5 µg/mL. For the same molecule, the “MIC S. aureus” value in data set [2] (setting [5]) is 5 µg/mL.
As for “PYCNGKRVCVCR--NH2 (PYCNGKRVCVCR-NH2; cysteine pairing not given here) [TEDP]”, in data set [1] (setting [5]), the “MIC C. albicans” value was determined as 5 µg/mL. Also, the “MIC S. aureus” value in data set [2] (setting [5]) was 5 µg/mL.
As for “SFYCNGKRVCVCR--NH2 (SFYCNGKRVCVCR-NH2; cysteine pairing not given here) [TEDFS]”, in data set [1] (setting [6]), the “MIC C. albicans” value worked out at 10 µg/mL. Also, the “MIC S. aureus” value in data set [2] (setting [6]) is 50 µg/mL.
“SYCNGKRVCVCR--NH2 (SYCNGKRVCVCR-NH2; cysteine pairing not given here) [TEDS]”: the “MIC C. albicans” value in data set [1] (setting [5]) stood at 50 µg/mL. Besides, the “MIC S. aureus” value in data set [2] (setting [5]) came to 10 µg/mL.
For “VTCDILSSVEAKGVKL--NH2 (VTCDILSSVEAKGVKL-NH2) [TEC]”, the “MIC C. albicans” value in data set [1] (setting [7]) is more than 100 µg/mL. Also, in data set [2] (setting [7]), the “MIC S. aureus” value was more than 500 µg/mL.
The corresponding values for “VTCDILSVEAKGVKLNDAACAAHC-LFRGRSGGYCNGKRVCVCR--CO2 H [Tenecin]” are more than 500 µg/mL and 3 µg/mL.
Regarding “WFYCNGKRVCVCR--NH2 (WFYCNGKRVCVCR-NH2; cysteine pairing not given here) [M29]”, the “MIC C. albicans” value in data set [1] (setting [3]) stood at 25 µg/mL. The “MIC S. aureus” value in data set [2] (setting [3]) was 30 µg/mL.
For the molecule “WFYCNGKRVCVCR--NH2 (WFYCNGKRVCVCR-NH2; cysteine pairing not given here) [TEDFW]”, the “MIC C. albicans” value in data set [1] (setting [6]) is 10 µg/mL. Moreover, the “MIC S. aureus” value in data set [2] (setting [6]) stood at 1 µg/mL.
“WYCNGKRVCVCR--NH2 (WYCNGKRVCVCR-NH2; cysteine pairing not given here) [TEDW]”: in data set [1] (setting [5]), the “MIC C. albicans” value was 20 µg/mL. The “MIC S. aureus” value in data set [2] (setting [5]) turned out to be 20 µg/mL.
Regarding “YCNGKRVCVCR--NH2 (YCNGKRVCVCR-NH2; cysteine pairing not given here) [TED]”, the “antifungal activity (in words)” value in data set [1] is listed as “excellent antifungal activity”. In addition, the “MIC C. albicans” value in data set [1] (setting [7]) and in data set [1] (setting [5]) was 10 µg/mL throughout. The “MIC against C. albicans” value in data set [1] (Table 2, modification of N-terminal residues of TED) worked out at 10 µg/mL. Moreover, the “MIC S. aureus” value in data set [2] (setting [7]) and in data set [2] (setting [5]) was 10 µg/mL in each case.
For the molecule “YCNGKRVCVCRKK--NH2 (YCNGKRVCVCRKK-NH2; cysteine pairing not given here) [M15]”, in data set [1] (setting [3]), the “MIC C. albicans” value worked out at 6.25 µg/mL. Further, in data set [2] (setting [3]), the “MIC S. aureus” value turned out to be 6.35 µg/mL.
Turning to “YFYCNGKRVCVCR--NH2 (YFYCNGKRVCVCR-NH2; cysteine pairing not given here) [TEDFY]”, in data set [1] (setting [6]), the “MIC C. albicans” value is 100 µg/mL. Also, the “MIC S. aureus” value in data set [2] (setting [6]) is 50 µg/mL.
In the case of kfycngkrvcvcr-NH2 [Enantiomer of TEDFK], in data set [1] (setting [4]), the “MIC C. albicans” value amounted to 6.35 µg/mL. For the same molecule, in data set [2] (setting [4]), the “MIC S. aureus” value is 6.35 µg/mL.
In the case of “rcvcvrkgncyfk-NH2 [Retro-inverso of TEDFK]”, the “MIC C. albicans” value in data set [1] (setting [4]) was found to be 6.25 µg/mL. Besides, the “MIC S. aureus” value in data set [2] (setting [4]) is 6.25 µg/mL.
